In patent US20040265847A1, “Method for treating Alzheimer's disease” (priority 1991, published 2004):

How the values were obtained:
APP-degrading protease = test: Assay of APP-degrading protease (Zn^2+-enhanced degradation of plasma 130 kDa APP); assay type: biochemical, human; conditions: heparin-Sepharose eluates, 37° C.
[1] = test system: human brain full-length APP; test: ^125I-APP binding to heparin-Sepharose
Description: 100 kDa human brian full-length APP was iodinated by the Chloramine-T method. Iodinated APP (^125I-APP) was then separated from labelling reagents by Sephacryl G25 chromatography.
The column was then washed with 6 ml buffer 1 and the APP eluted with aliquots of high-NaCl buffers.

[2] = biological target: T1, partially purified human brain APP (Homo sapiens, UniProt P05067); test: partially purified brain APP binding to heparin-Sepharose, NaCl gradient elution
T1 construct: from tissue; host or cells: human brain membrane extract
Description: (§1) APP binding to heparin-Sepharose was also studied using partially purified APP preparations derived from human brain membranes (according to the method of Moir et al, 1992) or from human serum. Washed brain membrane extract or human serum was adjusted to a NaCl concentration of 350 mM and applied to a Q-Sepharose column (5 cm×5 cm), washed with 350 mM NaCl, 50 mM Tris-Hcl, pH 7.4 (250 ml [×2 for brain membrane extract]) and eluted with 1 M NaCl 50 mM Tris-HCl, pH 7.4 (200 ml at 5 ml/min). This procedure causes an 80-fold enrichment of APP in the peak protein fractions, which are then pooled (Moir et al, 1992). The eluate (20 ml) was desalted into 25 mM Tris, pH 7.4 (30 ml) using a G25 Sephadex column (2.6 cm×40 cm). 15 ml of the product was adjusted to 50 μM Zn^2+ with 2 mM ZnCl2, 50 mM Tris-Hcl, pH 7.4 and the other 15 ml was adjusted to the same volume with 50 mM Tris-HCl, pH 7.4. 10 ml of the deslated Q-Sepharose eluate, containing 6.7 mg protein, was applied to heparin-Sepharose (1.6 cm×5 cm) at 0.35 ml/min, washed with 100 ml of loading buffer, and eluted by a 0 to 1500 mM NaCl gradient (±50 μM Zn^2+) in 52.5 ml at a flow rate of 0.35 ml/min. Fractions (1 ml) representing 20 mM NaCl increments were collected and 30 μl samples of each fraction were assayed for APP by Western blot with mAb 22C11 according to the method in Bush et al. (1990), modified by using PVDF membranes and by reducing the blocking time to 1 hour. The immunoreactive staining of the 130 kDa APP species seen on the blots was quantified by computer-assisted image capture reflectance densitometry (Bush et al., 1992). The 130 kDa reflectance signals on the blots were expressed as the ratio of the signal generated in one sample lane related to the 130 kDa APP reflectance reading of a sample of starting material present on every individual filter as an internal standard.

[3] = biological target: T2, partially purified human serum APP (Homo sapiens, UniProt P05067); test: partially purified serum APP binding to heparin-Sepharose
T2 construct: from tissue; host or cells: human serum
Description: 40-60 ml of whole blood was allowed to clot for 3 hours in plain tubes at 20° C. The clotted blood was then incubated for 16 hours at 4° C., whereupon it was centrifuged at 1500 g for 15 minutes and the supernatant removed. The serum was further centrifuged at 1500 g for 15 minutes and the cell-free supernatant removed.
as §1, with “Fractions (1 ml) representing 20 mM NaCl increments were collected and 30 μl samples of each fraction were assayed for APP by Western blot with mAb 22C11 according to the method in Bush et al. (1990), modified by using PVDF membranes and by reducing the blocking time to 1 hour.” left out

[4] = biological target: T3, APP purified from rat brain (Rattus norvegicus, UniProt P08592); test: heparin binding to APP in a Biosensor system
T3 construct: from tissue; host or cells: rat brain
Description: The effect of Zn^2+ in modulating heparin binding to APP was also studied in a Biosensor system. […] This effect was most pronounced and most specific for Zn^2+, as opposed to the absence of divalent cations or the presence of Ca^2+, Mg^2+ or Co^2+, and was most evident when the heparin:APP ratio was low. […] Zn^2+ at 50 nM promoted a =170% increase in heparin binding, the effect saturating at 70 μM.

[5] = test system: human brain membrane-derived APP; test: trypsin digestion of human brain membrane-derived APP, Western blot with 22C11; assay type: biochemical
Description: The proteolytic activity of trypsin (Boehringer, Mannheim) was studied to determine whether it was modulated by a range of doses of heparin (Sigma) and ZnCl2. […] Western blots for APP using the APP binding monoclonal antibody 22C11 were used to monitor the progression of the proteolytic reaction and to detect breakdown products.

trypsin = test: tryptic activity on fluorogenic substrate Z-F-R-AMC; assay type: biochemical; conditions: range of doses
APP = test: Effect of zinc loading upon rat brain APP; assay type: in vivo; conditions: 120 mg/kg injected daily for four days
Description: 16 week old Sprauge-Dawley male rats were injected daily for four days with 120 mg/kg ZnCl2 solution. The animals were then anaesthetized, bled by intracardiac puncture and their brains removed, homogenized and separated into membrane and soluble fractions following ultracentrifugation.

PC12 cells = test: Effect of extracellular zinc on cultured PC12 cells (APP by Western blot); assay type: cell-based; conditions: 48 hr
Description: 10^6 PC12 cells were plated for 24 hr in the presence of Dulbecco's modified Eagle's medium (DMEM, N2) supplemented with 8% fetal calf serum (FCS). The medium was then removed and replaced with DMEM±2 to 50 μM ZnCl2 or another salt, and no FCS. Cells and media were harvested 48 hr later and aliquots of media, cell cytosol and membrane (following lysis and ultracentrifugation) were assayed for APP by Western blotting with mAb 22C11.

T2 sequence (P05067 18-687 limits assumed): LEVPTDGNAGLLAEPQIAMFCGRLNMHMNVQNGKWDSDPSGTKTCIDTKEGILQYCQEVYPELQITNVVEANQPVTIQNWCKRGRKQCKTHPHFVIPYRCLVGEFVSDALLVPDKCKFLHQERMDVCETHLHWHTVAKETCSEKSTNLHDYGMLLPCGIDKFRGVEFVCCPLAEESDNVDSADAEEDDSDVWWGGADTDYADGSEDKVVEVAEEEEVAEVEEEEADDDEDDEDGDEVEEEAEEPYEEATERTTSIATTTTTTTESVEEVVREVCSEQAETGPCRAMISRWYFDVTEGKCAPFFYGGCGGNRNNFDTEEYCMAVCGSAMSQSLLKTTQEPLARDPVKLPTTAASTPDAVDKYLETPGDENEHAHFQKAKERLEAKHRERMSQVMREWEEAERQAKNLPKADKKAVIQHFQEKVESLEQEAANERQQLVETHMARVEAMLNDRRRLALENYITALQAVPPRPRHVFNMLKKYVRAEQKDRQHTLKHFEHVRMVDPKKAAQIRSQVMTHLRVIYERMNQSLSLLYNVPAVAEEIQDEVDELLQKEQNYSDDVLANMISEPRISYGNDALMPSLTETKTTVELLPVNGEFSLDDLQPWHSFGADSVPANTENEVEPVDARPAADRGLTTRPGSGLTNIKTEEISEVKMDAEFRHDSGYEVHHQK
T1 sequence (P05067 18-770): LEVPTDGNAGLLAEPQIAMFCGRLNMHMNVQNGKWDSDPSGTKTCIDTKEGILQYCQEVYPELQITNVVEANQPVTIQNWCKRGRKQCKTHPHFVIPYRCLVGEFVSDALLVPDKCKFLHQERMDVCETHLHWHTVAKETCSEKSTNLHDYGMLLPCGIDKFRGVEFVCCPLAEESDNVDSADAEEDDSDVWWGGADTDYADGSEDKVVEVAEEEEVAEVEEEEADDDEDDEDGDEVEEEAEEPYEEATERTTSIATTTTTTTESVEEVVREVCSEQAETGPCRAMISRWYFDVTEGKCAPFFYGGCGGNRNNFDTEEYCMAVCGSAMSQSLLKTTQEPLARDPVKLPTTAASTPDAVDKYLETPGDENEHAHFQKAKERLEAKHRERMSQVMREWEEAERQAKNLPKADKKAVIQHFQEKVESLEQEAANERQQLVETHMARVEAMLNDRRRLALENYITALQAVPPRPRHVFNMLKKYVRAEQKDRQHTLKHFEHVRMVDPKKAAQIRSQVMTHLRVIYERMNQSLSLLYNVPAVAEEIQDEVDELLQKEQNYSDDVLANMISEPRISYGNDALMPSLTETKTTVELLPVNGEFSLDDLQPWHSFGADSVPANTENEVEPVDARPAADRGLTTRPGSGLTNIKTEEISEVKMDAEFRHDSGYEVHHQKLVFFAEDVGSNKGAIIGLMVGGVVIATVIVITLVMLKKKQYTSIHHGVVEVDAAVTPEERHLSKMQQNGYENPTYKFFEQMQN
T3 sequence (P08592 18-770): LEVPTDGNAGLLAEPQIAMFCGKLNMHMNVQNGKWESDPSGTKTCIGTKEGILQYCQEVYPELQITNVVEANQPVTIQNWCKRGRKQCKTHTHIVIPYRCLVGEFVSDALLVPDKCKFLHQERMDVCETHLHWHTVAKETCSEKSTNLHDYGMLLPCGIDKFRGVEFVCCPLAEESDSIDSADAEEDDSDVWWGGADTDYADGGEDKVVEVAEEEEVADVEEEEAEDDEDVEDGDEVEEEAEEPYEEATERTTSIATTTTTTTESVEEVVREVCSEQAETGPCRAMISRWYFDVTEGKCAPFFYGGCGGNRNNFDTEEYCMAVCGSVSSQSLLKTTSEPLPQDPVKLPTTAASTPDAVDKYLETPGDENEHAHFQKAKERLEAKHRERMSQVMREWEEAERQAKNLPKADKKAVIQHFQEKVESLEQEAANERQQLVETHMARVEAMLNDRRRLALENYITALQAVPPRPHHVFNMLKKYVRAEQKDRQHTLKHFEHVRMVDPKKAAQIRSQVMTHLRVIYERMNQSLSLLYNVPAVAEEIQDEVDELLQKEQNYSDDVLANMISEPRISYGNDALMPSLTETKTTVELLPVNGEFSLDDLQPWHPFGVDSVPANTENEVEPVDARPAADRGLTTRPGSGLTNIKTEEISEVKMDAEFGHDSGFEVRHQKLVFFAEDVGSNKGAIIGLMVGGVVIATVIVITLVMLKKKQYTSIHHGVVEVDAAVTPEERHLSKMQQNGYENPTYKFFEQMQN

With [Cl-].[Cl-].[Zn+2] [Zn^2+, ZnCl2] the “effect on proteolysis of plasma APP” value (APP-degrading protease) was “Proteolysis was accelerated”, the “concentration at which increase in ^125I-APP binding to heparin reached a plateau” value [1] was 75 µM and the “increase in ^125I-APP recovered from the 50-2000 mM NaCl elution fraction” value ([1]; 50 μM Zn^2+) was “approximately 3 fold”. For the same compound, the “increase in amount of brain APP binding to heparin” value ([1]; 50 μM Zn^2+) was 50%, the “increase in ^125I-APP recovered from the 50-2000 mM NaCl elution fraction” value ([1]; 100 μM Zn^2+) was 4.5 fold and the “increase in amount of APP recovered in all fractions” value ([2]; 50 μM Zn^2+) was 48%. For the same compound, the “amount of APP recovered in all fractions” value ([2]; 50 μM Zn^2+ (1110 without)) was 1644 reflectance units, the “reduction in amount of eluted protein” value ([2]; 50 μM Zn^2+, protein assay) was 13% and the “effect on proportion of higher-affinity binding of serum-derived APP” value [3] was “did not increase the proportion of higher-affinity binding”. The “increase in APP recovered from the NaCl elution” value ([3]; 50 μm Zn^2+) was 10%, the “increase in amount of protein recovered” value ([3]; 50 μm Zn^2+, protein assay) was 12% and the “concentration at which effect on heparin binding saturates” value [4] was 70 µM. The “effect on heparin binding to APP” value ([4]; 100 μM) was “strongly promote heparin binding to APP”, the “increase in heparin binding to rat brain APP” value ([4]; Zn^2+ at 50 nM) was 170% and the “Zn^2+ concentration that completely abolished the protective effect of heparin” value ([5]; with heparin (1 μM)) was “above 1 μM”. For the same compound, the “effect on rate of APP proteolysis by trypsin” value ([5]; without heparin, Zn^2+ up to 100 μM, EDTA 1 mM) was “had no effect”, the “effect on tryptic activity” value (trypsin) was “left tryptic activity unaltered” and the “new APP band in plasma” value (APP) was “development of a novel 80 kDa band in plasma”. The “increase in the amounts of all forms of APP” value (APP; plasma and brain preparations vs litter-mates) was 80%, the “increase in APP released into the media” value (PC12 cells; 2 μM) was 50% and the “increase in APP released into the media (peak)” value (PC12 cells; 50 μM) was 200%. The “cytosolic APP” value (PC12 cells) was “Smaller increases in cytosolic APP” and the “membrane associated APP levels” value (PC12 cells) was “no change in membrane associated APP levels”.
